Experimental findings from patent publication US8809343B2, “Pyrimidine derivative, preparation method and use thereof” (Fudan University, priority 2008, dated 2014) are described below.

Read-outs that look alike come from different tables or passages of the source.

For data set [1], the system named is HIV-1 IIIB strain. Kind of data set: Anti-HIV activity: protection of HIV-infected MT-4 cells from virus-induced cell lesions. It is filed as cell-based. As to the method:
(§1) Anti-virus activity of cells in vitro was determined by Rega Institute for Medical of […] Katholleke University, consisting mainly: inhibitory activity towards HIV-infected MT-4 cells and cell toxicity. The method is described below: exert the compound on the HIV-infected ME-4 cells, and determine the protection of the drug on the cell lesions induced by HIV at varied HIV-infection intervals, calculate the half effective concentration IC50, the required concentration that protect 50% of cells from cell lesions induced by HIV. Toxicity determination is carried out in parallel with anti-HIV activity experiments, also in the cultured MT-4 cells, determine the CC50, the concentration that leads 50% of uninfected cells to cell lesions, and calculate the selectivity index SI=CC50/IC50 with the MTT method.
(§2) Anti-HIV activity of various compounds is monitored by the inhibitory efficiency of drugs on the cell lesions induced by HIV. Carry out cell culture with MT-4 cells. The adopted virus strains are HIV-1 IIIB strain and drug-resistant viral strain of […].
(§3) The detailed operation is as follows: the compound is dissolved with DMSO or water and diluted with phosphate buffer saline, 3×10^5 MT-4 cells are cultured with 100 μL various concentrations of compounds for 1 h, then 100 μL suitable virus dilution is added to the compound, and the cells are cultured at 37° C. for 1 h. After being washed for 3 times, the cells are suspended again in the culture media containing or not compounds individually. Subsequently, the cells are transferred to the atmosphere containing 5% CO2 and cultured for 7 days at 37° C., and culture media containing or not compounds are used to replace or supplement the culture solution on the third day after infection. Kinds of culture conditions should be duplicated. The cell lesions caused by virus are monitored with reverse light microscopy everyday. Typically, the virus dilution applied in the present experiments generally cause cell lesion on the fifth day after infection. […] It should be emphasized that, when the compound is poorly water-soluble and can only be dissolved in DMSO, the ratio of DMSO to water is generally below 10% (the final concentration of DMSO in MT-4 cell culture media is smaller than 2%). Because DMSO can influence the anti-virus activity of the tested compounds, blank tests on the solution containing the same concentration of DMSO should be conducted in parallel. Additionally, the final concentration of DMSO is far below the concentration required to influence the replication of HIV-1 in T cells.

Data set [2] has as its system drug-resistant viral strain of […]. As to the kind of experiment: Anti-HIV activity in MT-4 cells, drug-resistant viral strain. It is filed as cell-based, HIV-1. Here is the method:
as §1, §2, §3

Data set [3] can be described thus: Cell toxicity in uninfected MT-4 cells (MTT method). It is filed as cell-based. As to conditions: human. Here is the method: as §1, §3
Background: Formazan colour is commonly taken as a measure of viable cells.

In data set [4] the target is T1, HIV-1 RT (Human immunodeficiency virus type 1 group M subtype B, UniProt P03366).
T1 construct: Screening for in vitro activity of anti HIV-1 reverse transcriptase (HIV-1 RT); made in house
As to the kind of experiment: In vitro anti HIV-1 reverse transcriptase screening (Biotin-dUTP, OD450). It is filed as biochemical.

Data set [5] relates to MT-4 cells. Kind of data set: Cell toxicity in uninfected MT-4 cells (MTT method). As to conditions: Table 1. It is filed as cell-based. Here is the method: as §1, §3
Where [6] appears, read: HIV-1 IIIB, MT-4 cells, Table 1.
[7] abbreviates: Human immunodeficiency virus 1, IIIB, MT4, read-out: EC50 HIV-1(IIIB).
The mark [8] stands for this setting: Human immunodeficiency virus 1, MT4, read-out: EC50 103N + 181C, MT-4 cells, Table 1.
Where [9] appears, read: Human immunodeficiency virus 1, IIIB, MT4, read-out: EC50 WT(IIIB).
[10] abbreviates: Human immunodeficiency virus 1, MT4, read-out: EC50 103N + 181C, MT-4 cells, Table 2.
The mark [11] stands for this setting: MT-4 cells, Table 1, read-out: EC50 HIV-1(IIIB).
Where [12] appears, read: MT-4 cells, Table 1, read-out: EC50 103N + 181C.

The term EC50 denotes the concentration needed to bring the measured effect to its halfway point. The term CC50 denotes the concentration that lowers cell viability or growth by half. Read a high CC50 as lower toxicity to the cells. As for `COc1cc(Oc2cccc3cccnc23)nc(Nc2ccc(C#N)cc2)n1` [Compound 4], the “SI (Selectivity index, the ratio of CC50/IC50)” value in data set [1] (setting [6]) came to 3299. The EC50 was 12.8 nM in data set [1] (setting [7]) and at least 42200 nM in data set [2] (setting [8]). This compound also returned a CC50 at 7 days in data set [3] (uninfected MT-4 cells, Table 1) of 42200 nM.

The IC50 is the concentration that gives 50% inhibition. A low value points to inhibition by little substance. `COc1c(Oc2ccnc(Nc3ccc(C#N)cc3)n2)ccc2cc(C#N)ccc12` [Compound 20]: the EC50 in data set [1] (setting [9]) was 1.2 nM; in data set [2] (setting [10]) it was 380 nM. For the same compound, the “SI (Selectivity index, the ratio of CC50/IC50)” value in data set [1] (WT(IIIB), Table 2) is on record as “≧134032”. For the same compound, the IC50 in data set [4] was 2290 nM. It took 161000 nM to reach half-maximal cytotoxicity in data set [3] (uninfected MT-4 cells, Table 2) (CC50 at 7 days).

On to `N#Cc1ccc(Nc2nc(Cl)cc(Oc3cccc4cccnc34)n2)cc1` [Compound 2], for which the “SI (Selectivity index, the ratio of CC50/IC50)” value in data set [1] (setting [6]) is listed as 1031. Further, the concentration giving a half-maximal response (EC50) is 19.5 nM in data set [1] (setting [7]) and at least 20100 nM in data set [2] (setting [8]). Besides, the CC50 at 7 days in data set [3] (uninfected MT-4 cells, Table 1) was found to be 20100 nM.

Regarding `CNc1nc(Nc2ccc(C#N)cc2)nc(Oc2ccc3cc(C#N)ccc3c2)c1C(C)C` [Compound 19], the EC50 came to 7.6 nM in data set [1] (setting [11]) and 4580 nM in data set [2] (setting [12]). The compound also gave a CC50 in data set [5] of 265000 nM.

As for `COc1cc2cc(C#N)ccc2c(Cl)c1Oc1ccnc(Nc2ccc(C#N)cc2)n1` [Compound 24], the EC50 worked out at 0.6 nM in data set [1] (setting [9]) and 150 nM in data set [2] (setting [10]). For the same compound, the “SI (Selectivity index, the ratio of CC50/IC50)” value in data set [1] (WT(IIIB), Table 2) is “≧25701”. Besides, half-maximal cytotoxicity in data set [3] (uninfected MT-4 cells, Table 2) (CC50 at 7 days) was put at 15400 nM.

For the compound `N#Cc1ccc(Nc2nccc(Oc3cc4ccc(C#N)cc4cc3Br)n2)cc1` [Compound 16], the EC50 in data set [1] (setting [11]) is 1.1 nM; in data set [2] (setting [12]), over 56500 nM. This compound also had a CC50 in data set [5] of 55400 nM.

On to `CCc1c(NC)nc(Nc2ccc(C#N)cc2)nc1Oc1ccc2cc(C#N)ccc2c1Br` [Compound 18], for which the EC50 in data set [1] (setting [11]) was 6.2 nM; in data set [2] (setting [12]) it was over 59500 nM. In addition, in data set [5], the CC50 is 304000 nM.

Take `CNc1nc(Nc2ccc(C#N)cc2)nc(Oc2ccc3ccccc3c2Br)c1C` [Compound 17]: the EC50 in data set [1] (setting [11]) turned out to be 15.4 nM; in data set [2] (setting [12]) it was 6150 nM. Also, in data set [5], the CC50 amounted to 177000 nM.

On to `CNc1cc(Oc2cccc3cccnc23)nc(Nc2ccc(C#N)cc2)n1` [Compound 3], for which the “SI (Selectivity index, the ratio of CC50/IC50)” value in data set [1] (setting [6]) stood at 6089. For the same compound, the EC50 in data set [1] (setting [7]) is 8.9 nM; in data set [2] (setting [8]) it was at least 54200 nM. In addition, the CC50 at 7 days in data set [3] (uninfected MT-4 cells, Table 1) worked out at 54200 nM.

For `N#Cc1ccc(Nc2nccc(Oc3ccc4cc(C#N)ccc4c3Br)n2)cc1` [Compound 15], the EC50 in data set [1] (setting [11]) turned out to be 1.6 nM; in data set [2] (setting [12]) it was 240 nM. For the same compound, the CC50 in data set [5] turned out to be 290000 nM.

As to `N#Cc1ccc(Nc2nccc(Oc3ccc4cc(C#N)ccc4c3Cl)n2)cc1` [Compound 23], the EC50 amounted to 1.8 nM in data set [1] (setting [9]) and 700 nM in data set [2] (setting [10]). For the same compound, the “SI (Selectivity index, the ratio of CC50/IC50)” value in data set [1] (WT(IIIB), Table 2) was 47964. It took 86300 nM to reach half-maximal cytotoxicity in data set [3] (uninfected MT-4 cells, Table 2) (CC50 at 7 days).

With `Cc1cc2ccccc2c(C)c1Oc1ccnc(Nc2ccc(C#N)cc2)n1` [Compound 12], the EC50 in data set [1] (setting [11]) came out at 4.1 nM; in data set [2] (setting [12]), 1170 nM. Moreover, the CC50 in data set [5] turned out to be 313000 nM.

`COc1cc2cc(C#N)ccc2c(OC)c1Oc1ccnc(Nc2ccc(C#N)cc2)n1` [Compound 22]: the EC50 in data set [1] (setting [9]) stood at 0.8 nM; in data set [2] (setting [10]) it was 160 nM. Moreover, the “SI (Selectivity index, the ratio of CC50/IC50)” value in data set [1] (WT(IIIB), Table 2) is “≧25000”. The compound further had an IC50 in data set [4] of 94.5 nM. In data set [3] (uninfected MT-4 cells, Table 2), this compound had a CC50 at 7 days of 20000 nM.

In the case of `O=C1Nc2ccc(Cl)cc2[C@@](C#CC2CC2)(C(F)(F)F)O1` [EFV, efavirenz, reference compound], the “SI (Selectivity index, the ratio of CC50/IC50)” value in data set [1] (setting [6]) was over 1434; in data set [1] (HIV-1 IIIB, MT-4 cells, Table 3) it was over 2174; in data set [1] (WT(IIIB), Table 2), over 1434. The EC50 in data set [1] (Human immunodeficiency virus 1, IIIB, MT4, MT-4 cells, Table 1, read-out: EC50 HIV-1(IIIB)) turned out to be 3 nM; in data set [1] (Human immunodeficiency virus 1, IIIB, MT4, MT-4 cells, Table 2, read-out: EC50 WT(IIIB)) it was 3 nM; in data set [2] (setting [8]), 560000 nM; in data set [2] (setting [10]), 560 nM. Moreover, the CC50 at 7 days in data set [3] (Table 1) was 4300 nM; in data set [3] (Table 3), over 6340 nM.

Turning to `CC(C)c1c(Cl)nc(Nc2ccc(C#N)cc2)nc1Oc1ccc2cc(C#N)ccc2c1` [Compound 9], the figures for the EC50 in data set [1] (setting [11]) and in data set [2] (setting [12]) were 50 nM and 3360 nM, respectively. The compound also came in with a CC50 in data set [5] of 436000 nM.

Regarding `COc1cc2cc(C#N)ccc2cc1Oc1ccnc(Nc2ccc(C#N)cc2)n1` [Compound 21], the EC50 in data set [1] (setting [9]) amounted to 0.9 nM. In addition, the “SI (Selectivity index, the ratio of CC50/IC50)” value in data set [1] (WT(IIIB), Table 2) is listed as over 158228. This compound also showed a 50% inhibitory concentration (IC50) in data set [4] of 1320 nM. Besides, in data set [3] (uninfected MT-4 cells, Table 2), the CC50 at 7 days was found to be 142000 nM.

Regarding `N#Cc1ccc(Nc2nccc(Oc3cccc4cccnc34)n2)cc1` [Compound 1], the “SI (Selectivity index, the ratio of CC50/IC50)” value in data set [1] (setting [6]) stood at 13393. Moreover, the half-maximal effective concentration (EC50) in data set [1] (setting [7]) was 2.9 nM; in data set [2] (setting [8]), at least 38800 nM. In addition, half-maximal cytotoxicity in data set [3] (uninfected MT-4 cells, Table 1) (CC50 at 7 days) was put at 38800 nM.

Regarding `N#Cc1ccc(Nc2nccc(Oc3ccc4cc(C#N)ccc4c3)n2)cc1` [Compound 14], the EC50 in data set [1] (setting [11]) was 3.3 nM; in data set [2] (setting [12]) it was 6300 nM. The same compound had a CC50 in data set [5] of 67800 nM.
